One experiment relates to S. aureus ATCC 35556. In words: MBIC/MIC secondary assay. The following applies: for MIC: Staphylococcus aureus, ATCC35556. Type of experiment: cell-based, Staphylococcus aureus.
For a further experiment, the system named is S. epidermidis 18972. The experiment is described as follows: MBIC/MIC secondary assay (crystal violet biofilm staining / OD600 growth). It counts as cell-based, Staphylococcus epidermidis. The following applies: for MIC: Staphylococcus epidermidis. As for the experimental part:
Assays for detecting and measuring bacterial biofilm formation are known in the art. An example of a biofilm formation assay useful in detecting and characterizing biofilm inhibitor compounds is described in Example 1, infra. Briefly, bacterial cells are inoculated into growth medium in individual wells of a 96-well assay plate in the presence or absence of a compound (known biofilm inhibitor or test compound). After incubation for a specified time, growth medium and non-biofilm bacterial cells are removed from each of the wells. The bacterial cells in any biofilms that are adhered to the surface of a well are fixed by addition of ethanol. The ethanol is removed, and the fixed biofilm bacteria cells are stained with crystal violet (CV). The intensity of CV staining is directly correlated with bacterial biofilm formation and is measured in the wells by reading the optical density at 600 nm (OD600). The difference in biofilm formation between untreated control and treated cultures provides an indication of relative biofilm inhibition activity (anti-biofilm activity). Use of different concentrations of an inhibitor in multiple and otherwise duplicate cultures permits determination of a compound's Minimal Biofilm Inhibitory Concentration (MBIC), which is defined herein as the lowest concentration of a compound that inhibits biofilm formation by at least 80% (i.e., ≧80%) compared to untreated control cultures.
A higher throughput was achieved by formatting the assay for use in flat-bottomed 96-well assay plates (Costar 3590 assay plates, Corning Life Sciences, Lowell, Mass.). The biofilm cultures grew on the bottoms of each well in a surface attached mode. In each assay plate, columns 1 and 12 contained untreated cultures, which served as negative controls (0% biofilm inhibition). Each of the assay wells in columns 2-11 contained a unique small molecule from the Microbiotix Screening Library (MSL) at a final concentration of 100 μM. Assay plates were inoculated with 200 μl/well of a culture of Staphylococcus pidermidis 18972 in 0.5×Tryptic Soy Broth (TSB; Becton Dickinson, Franklin Lakes, N.J.) in which the concentration of glucose was adjusted to 0.25% (w/v). The bacterial inocula were prepared by making a 1:100 dilution of an overnight culture grown in TSB in the media used for the screen. After inoculation, assay plates were sealed with foil tape and incubated at 37° C. for 18-20 hours (h). The optical density at 600 nm (OD600) was measured for each well using a VICTOR2V™ multiplate reader (Perkin Elmer, Waltham, Mass.) in order to quantify overall bacterial growth. The assay plates were processed to remove bacterial growth media and non-biofilm cells from the bottom of each assay well. This was accomplished by using a BioTek ELx405™ plate washer (BioTek Instruments, Inc., Winooski, Vt.). Biofilm bacteria were fixed by addition of 50 μl of 95% ethanol for 30 minutes (min). The ethanol was removed, and the fixed biofilm cultures were stained with 50 μl of 0.06% crystal violet (CV) for 60 min. Excess CV was removed by repeated washes using the BioTek ELx405™ plate washer. The amount of CV bound to each assay well was quantified by measuring OD600 using a VICTOR2V™ plate reader (Perkin Elmer).
A secondary assay provided a quantitative measure of both anti-biofilm activity and antibacterial activity in terms of the Minimal Biofilm Inhibitory Concentration (MBIC) and the Minimal Inhibitory Concentration (MIC), respectively. The MBIC and MIC are defined as the lowest compound concentrations that inhibit biofilm formation and bacterial growth, respectively, by at least 80% (i.e., ≧80%). The MBIC/MIC assay is formatted in a manner that is similar to the Microbroth dilution assays described by the Clinical and Laboratory Standards Institute (CLSI; formerly NCCLS) in protocol M7-A7. The growth conditions were optimized for biofilm growth in 96-well assay plates such that the resulting CV staining was within the linear range of detection. […]

Setting [1] is: S. aureus strain 35556, Table 5.
[2] abbreviates: S. epidermidis strain 18972, Table 4.

Where two headings read alike, the source gives them in different places.

Regarding `CCOc1cc(/C=C2\SC(=S)N(c3ccc(F)cc3)C2=O)ccc1O` [Compound 4, 3-(4-fluorophenyl)-5-(3-ethoxy-4-hydroxybenzylidene)-2-thioxothiazolidin-4-one], the MBIC stood at 3.125 µM with S. aureus ATCC 35556 (S. aureus ATCC 35556, stated in text of Examples 5 and 6); 3.1 µM with S. aureus ATCC 35556 (setting [1]); 25 µM with S. epidermidis 18972 (setting [2]). The MIC in the experiment on S. aureus ATCC 35556 and with S. epidermidis 18972 (18972) was at least 100 µM throughout.

As for `CCOc1cc(/C=C2\SC(=S)N(c3cccc(F)c3)C2=O)ccc1O` [Compound 8, 3-(3-fluorophenyl)-5-(3-ethoxy-4-hydroxybenzylidene)-2-thioxothiazolidin-4-one], the MBIC in the experiment with S. aureus ATCC 35556 (setting [1]) was 6.3 µM; in the experiment on S. epidermidis 18972 (setting [2]), 50 µM. For the same compound, the MIC against S. aureus ATCC 35556 and in the experiment on S. epidermidis 18972 (18972) was at least 100 µM in each case.

With `C=CCOc1cc(/C=C2\SC(=S)N(c3ccc(F)cc3)C2=O)ccc1O` [Compound 29, 3-(4-fluorophenyl)-5-(3-allyloxy-4-hydroxybenzylidene)-2-thioxothiazolidin-4-one], the MBIC in the experiment with S. aureus ATCC 35556 (setting [1]) is 3.1 µM; with S. epidermidis 18972 (setting [2]) it was 25 µM. In addition, the MIC with S. aureus ATCC 35556 (S. aureus strain 35556, Table 5, read-out: MIC) is at least 100 µM; in the experiment with S. epidermidis 18972 (S. epidermidis strain 18972, Table 4, read-out: MIC) it was at least 100 µM.

`CCOc1cc(/C=C2\SC(=S)N(c3cccc(C#N)c3)C2=O)ccc1O` [Compound 34, 3-(3-cyanophenyl)-5-(3-ethoxy-4-hydroxybenzylidene)-2-thioxothiazolidin-4-one]: the MBIC amounted to 1.6 µM in the experiment on S. aureus ATCC 35556 (setting [1]) and 25 µM in the experiment with S. epidermidis 18972 (setting [2]). Further, the MIC against S. aureus ATCC 35556 and with S. epidermidis 18972 (18972) was at least 100 µM throughout.

As to `CCOc1cc(/C=C2\SC(=S)N(c3cccnc3)C2=O)ccc1O` [Compound 36, 3-(pyridin-3-yl)-5-(3-ethoxy-4-hydroxybenzylidene)-2-thioxothiazolidin-4-one], the MBIC in the experiment with S. aureus ATCC 35556 (setting [1]) and with S. epidermidis 18972 (setting [2]) was 12.5 µM each time. The MIC with S. aureus ATCC 35556 and in the experiment with S. epidermidis 18972 (18972) was at least 100 µM throughout.

For `CCOc1cc(/C=C2\SC(=S)N(c3ccc(F)nc3)C2=O)ccc1O` [Compound 40, 3-(6-fluoropyridin-3-yl)-5-(3-ethoxy-4-hydroxybenzylidene)-2-thioxothiazolidin-4-one], the MBIC is 6.3 µM with S. aureus ATCC 35556 (setting [1]) and 25 µM with S. epidermidis 18972 (setting [2]). The MIC against S. aureus ATCC 35556 and against S. epidermidis 18972 (18972) was at least 100 µM each time.

(Values after patent US20110098323A1, “INHIBITORS OF BACTERIAL BIOFILM FORMATION” (MICROBIOTIX, INC., priority 2009, published 2011).)
